According to PubChem BioAssay (NCI):
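These data come from cells grown in 96-well plates and exposed to compound for 48 hours at five concentrations. TGI is the concentration that stops growth completely.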

What was measured:
Assay in all cases: growth of human tumour cells (NCI), 48 h
[1] = test system: IGROV1 ovarian
[2] = test system: OVCAR-8 ovarian
[3] = test system: COLO 205 colon
[4] = test system: M14 melanoma
[5] = test system: RPMI-8226 leukemia
[6] = test system: K-562 leukemia
[7] = test system: MDA-MB-231 breast
[8] = test system: HCC-2998 colon
[9] = test system: UO-31 renal
[10] = test system: SF-295 CNS
[11] = test system: HT29 colon
[12] = test system: SF-268 CNS
[13] = test system: RXF 393 renal
[14] = test system: SK-MEL-2 melanoma
[15] = test system: LOX IMVI melanoma
[16] = test system: OVCAR-3 ovarian
[17] = test system: MOLT-4 leukemia
[18] = test system: A549 NSCLC
[19] = test system: HS 578T breast
[20] = test system: DU-145 prostate
[21] = test system: HOP-62 NSCLC
[22] = test system: PC-3 prostate
[23] = test system: SK-MEL-28 melanoma
[24] = test system: NCI/ADR-RES ovarian
[25] = test system: SK-OV-3 ovarian
[26] = test system: HCT-15 colon
[27] = test system: CCRF-CEM leukemia
[28] = test system: U251 CNS
[29] = test system: TK-10 renal
[30] = test system: NCI-H522 lung
[31] = test system: UACC-257 melanoma
[32] = test system: SF-539 CNS
[33] = test system: ACHN renal
[34] = test system: KM12 colon
[35] = test system: CAKI-1 renal
[36] = test system: HL-60(TB) leukemia
[37] = test system: SNB-75 CNS
[38] = test system: MCF7 breast
[39] = test system: SN12C renal
[40] = test system: SW-620 colon
[41] = test system: HOP-92 NSCLC
[42] = test system: OVCAR-4 ovarian
[43] = test system: NCI-H226 lung
[44] = test system: 786-0 renal
[45] = test system: NCI-H23 lung
[46] = test system: MDA-MB-435
[47] = test system: OVCAR-5 ovarian
[48] = test system: SK-MEL-5 melanoma
[49] = test system: HCT-116 colon
[50] = test system: SR leukemia
[51] = test system: MALME-3M melanoma
[52] = test system: T-47D breast
[53] = test system: A498 renal
[54] = test system: BT-549 breast
[55] = test system: SNB-19 CNS
[56] = test system: UACC-62 melanoma
[57] = test system: EKVX NSCLC

Compound `c1ccc(-c2ccc(-c3ccc(C4=NCCN4)cc3)o2)cc1` has a TGI [1] of 7.52 µM, a TGI [2] of 15.2 µM and a TGI [3] of 3.31 µM. The TGI [4] was 3.1 µM, the TGI [5] was 2.88 µM and the TGI [6] was 3.44 µM. The TGI [7] was 3.89 µM, the TGI [8] was 2.81 µM and the TGI [9] was 3.14 µM. It also gave a TGI [10] of 3.82 µM, a TGI [11] of 4.94 µM and a TGI [12] of 8.4 µM. For the same compound, the TGI [13] was 6.53 µM, the TGI [14] was 3.51 µM and the TGI [15] was 4.01 µM. For the same compound, the TGI [16] was 18 µM, the TGI [17] was 4.59 µM and the TGI [18] was 7.8 µM. It also gave a TGI [19] of 2.8 µM, a TGI [20] of 10.3 µM and a TGI [21] of 12.3 µM. For the same compound, the TGI [22] was 5.54 µM, the TGI [23] was 3.75 µM and the TGI [24] was 19.7 µM. The TGI [25] was 11.5 µM, the TGI [26] was 4.19 µM and the TGI [27] was 4.46 µM. For the same compound, the TGI [28] was 3.93 µM, the TGI [29] was 11.4 µM and the TGI [30] was 4.21 µM. It also gave a TGI [31] of 4.89 µM, a TGI [32] of 4.4 µM and a TGI [33] of 7.97 µM. For the same compound, the TGI [34] was 4.43 µM, the TGI [35] was 5.36 µM and the TGI [36] was 3.74 µM. It also gave a TGI [37] of 5.17 µM, a TGI [38] of 3.68 µM and a TGI [39] of 11.4 µM. The TGI [40] was 4.42 µM, the TGI [41] was 5.03 µM and the TGI [42] was 15 µM. The TGI [43] was 6.15 µM, the TGI [44] was 3.1 µM and the TGI [45] was 17.5 µM. For the same compound, the TGI [46] was 3.84 µM, the TGI [47] was 7.9 µM and the TGI [48] was 3.92 µM. For the same compound, the TGI [49] was 3.42 µM, the TGI [50] was 7.43 µM and the TGI [51] was 2.17 µM. The TGI [52] was 7.06 µM, the TGI [53] was 3.65 µM and the TGI [54] was 17.3 µM. The TGI [55] was 6.3 µM, the TGI [56] was 3.2 µM and the TGI [57] was 10.8 µM.
